Test results taken from patent publication US20230263768A1, “WATER-SOLUBLE ARTESUNATE-BASED THERAPY FOR CORONAVIRUS INFECTION” (priority 2020, published 2023).

Experiments:
[1] = test system: SARS-CoV-2 (isolate USA-WA1-2020); assay: SARS-CoV-2 replication in VERO E6 cells, viral RNA by qPCR (Ct) after 48 h; type: cell-based
[2] = Solubility of artesunate formulations in simulated gastric fluid; type: physicochemical; details: 0.5 g in 10 mL SGF pH 1.2, 36.5° C., 100 rev/min, after 30 minutes
Procedure: An amount of 0.5 g of different artesunate formulations (untreated artesunate, sodium Artesunate, Artesunate/SG complex and WSA powders) are dispersed in 10 mL of simulated gastric fluid (SGF, pH 1.2). All solutions are incubated at 36.5° C. under mild shaking with (100 rev/min) in a G24 Environmental Incubator Shaker (New Brunswick Scientific Co., NJ, USA).

[3] = Example 4, 160 µg/mL, 48 h, VERO E6

| Structure (SMILES) | antiviral activity (in words) ([1]; Example 6, dose response and combination with Telmisartan) | appearance of the solution / precipitation in SGF [2] | Cycle Threshold Value (quantity of viral RNA) [1, 3] | antiviral activity (in words) [1, 3] | Cycle Threshold Value (quantity of viral RNA) ([1]; Example 4, 160 µg/mL, 48 h, VERO E6, listed as sodium artesunate) |
| --- | --- | --- | --- | --- | --- |
| CCCc1nc2c(C)cc(-c3nc4ccccc4n3C)cc2n1Cc1ccc(-c2ccccc2C(=O)O)cc1 [Telmisartan] | No activity antiviral is observed |  |  |  |  |
| C[C@@H]1CCC2[C@@H](C)[C@H](OC(=O)CCC(=O)O)OC3O[C@]4(C)CCC1[C@]32OO4 (stereo partly drawn) [untreated Artesunate, Artesunate] |  | milky appearance, with an important precipitation at the bottom of vial |  |  |  |
| C[C@H]1[C@H](OC(=O)CCC(=O)[O-])O[C@@H]2O[C@@]3(C)CC[C@H]4[C@H](C)CC[C@@H]1[C@@]24OO3.[Na+] [Sodium Artesunate] |  | cloudy, but no evident precipitation is observed | 22.5 | Low antiviral activity | about 23 |
